Like-named read-outs stand apart in the source and are kept apart here.
Experiments:
[1] = system: β2 -stimulation, lungs guinea pig; test: Bronchospasmolytic effect (β2 -stimulation), Konzett-Rossler technique in anaesthetized guinea pig lungs; format: in vivo; details: Cavia porcellus, doses as free base of the racemic compound
in vivo = details: mouse
Text: Furthermore the acute toxicity in mice after intraveneous and oral administration is given.

[2] = system: β2 -stimulation versus β1 -stimulation; test: Bronchial selectivity: heart rate increasing dose ("ED 100") divided by bronchospasmolytic dose (ED 50); format: in vivo; details: heart rate ED 100 (mice, i.v.) / bronchospasmolytic ED 50 (guinea pig, i.v.)
Experimental: The ratio, heart rate increasing dose ("ED 100") divided by bronchospasmolytic dose (ED 50), is a measure of the degree of selectivity of the bronchospasmolytic action. This ratio was calculated for a number of the compounds of the invention and for some of the most relevant compounds of reference.

[3] = system: β1 -stimulation, heart rate mice; test: Heart rate increasing effect (β1 -stimulation) in pentobarbital anaesthetized mice; format: in vivo; details: Mus musculus, iv, dose giving an increase in heart rate of 100 beats/min, as free base
Experimental: An especially valuable feature of the present invention is that typical and preferred representative of the compounds of the invention show a high bronchial selectivity (ratio of bronchospasmolytic activity to heart rate increasing effect) as compared to existing well-known broncholytics. […] The ratio, heart rate increasing dose ("ED 100") divided by bronchospasmolytic dose (ED 50), is a measure of the degree of selectivity of the bronchospasmolytic action. This ratio was calculated for a number of the compounds of the invention and for some of the most relevant compounds of reference.

[4] = system: β-stimulation of the skeletal muscles; test: Tremor-inducing activity (β-stimulation of the skeletal muscles) compared to bronchospasmolytic activity in cats (Bowman and Nott); format: in vivo
Experimental: For a few of the compounds of the invention, the tremor-inducing activity (β-stimulation of the skeletal muscles) was determined in cats (in accordance with the technique of Bowman, W. C. and Nott, M. W.: Actions of some sympathomimetic bronchodilator and beta-adrenoceptor blocking drugs on contractions of the cat soleus muscle, Brit. J. Pharmac., 1970, 38, 37-49) and compared to the bronchospasmolytic activity in the same species.

[5] = iv, read-out: β2 -stimulation lungs guinea pig ED 50 i.v.
[6] = i.d. = intraduodenally, read-out: β2 -stimulation lungs guinea pig ED 50 i.d.

Row | Compound | ED50 [1, 5] | LD50 (in vivo; iv) | LD50 (in vivo; po) | ED50 [1, 6] | Ratio "ED 100"/ED 50 [2] | ED (increase of 100 beats/min) [3] | ratio between bronchospasmolytic dose and tremor-inducing dose, compared with salbutamol [4]
1 | CC(C)(C)NCC(O)c1ccc(O)c(NC(=O)c2ccc(Cl)c(Cl)c2)c1.Cl (stereo not drawn) [3-(3,4-Dichlorobenzamido)-4-hydroxy-α-(tert.butylaminomethyl)benzylalcohol hydrochloride] | 0.1 mg/kg | 60 mg/kg | > 2000 mg/kg |  |  |  | 
2 | COc1ccc(CNc2cc(C(O)CNC(C)(C)C)ccc2O)cc1OC.Cl (stereo not drawn) [3-(3,4-Dimethoxybenzylamino)-4-hydroxy-α-(tert.butylaminomethyl)benzylalcohol hydrochloride] | 0.01 mg/kg | 20 mg/kg | > 2000 mg/kg | 10 mg/kg | 9 | 0.09 mg/kg | 
3 | CC(C)(C)NCC(O)c1ccc(O)c(NC(=O)c2cc(O)cc(O)c2)c1.Cl (stereo not drawn) [3-(3,5-Dihydroxybenzamido)-4-hydroxy-α-(tert.butylaminomethyl)-benzylalcohol hydrochloride] | 0.3 mg/kg | 20 mg/kg | > 2000 mg/kg | 20 mg/kg |  |  | 
4 | COc1c(C)cc(CNc2cc(C(O)CNC(C)(C)C)ccc2O)cc1C.Cl (stereo not drawn) [3-(3,5-Dimethyl-4-methoxybenzylamino)-4-hydroxy-α-(tert.butylaminomethyl)benzylalcohol hydrochloride] | 0.03 mg/kg | 20 mg/kg | 1500 mg/kg | 3 mg/kg | 10 | 0.3 mg/kg | 
5 | COc1cc(CNc2cc(C(O)CNC(C)(C)C)ccc2O)ccc1O.Cl (stereo not drawn) [3-(3-Methoxy-4-hydroxybenzylamino)-4-hydroxy-α-(tert.butylaminomethyl)-benzylalcohol hydrochloride] | 0.02 mg/kg | 10 to 30 mg/kg | > 2000 mg/kg |  | 2.5 | 0.05 mg/kg | 
6 | CC(C)(C)NCC(O)c1ccc(O)c(NC(=O)c2cccc([N+](=O)[O-])c2)c1.Cl (stereo not drawn) [3-(3-Nitrobenzamido)-4-hydroxy-α-(tert.butylaminomethyl)benzylalcohol hydrochloride] | 0.3 mg/kg | 60 mg/kg | > 2000 mg/kg |  |  |  | 
7 | CC(C)(C)NCC(O)c1ccc(O)c(NCc2cccc(O)c2)c1 (stereo not drawn) [3-(3-hydroxybenzylamino)-4-hydroxy-α-(tert.butylaminomethyl) benzylalcohol] | 0.01 mg/kg | 20 mg/kg | ≥ 2000 mg/kg | 10 mg/kg | 2.5 | 0.025 mg/kg | 
8 | CC(C)(C)NCC(O)c1ccc(O)c(NC(=O)c2ccc(Cl)cc2)c1.Cl (stereo not drawn) [3-(4-Chlorobenzamido)-4-hydroxy-α-(tert.butylaminomethyl)benzylalcohol hydrochloride] | 0.5 mg/kg | 60 mg/kg | > 2000 mg/kg |  |  |  | 
9 | CN(C)c1ccc(CNc2cc(C(O)CNC(C)(C)C)ccc2O)cc1.Cl (stereo not drawn) [3-(4-Dimethylaminobenzylamino)-4-hydroxy-α-(tert.butylaminomethyl)benzylalcohol hydrochloride] | 0.02 mg/kg | 20 mg/kg | 700 mg/kg |  | ≥ 5 | ≥ 0.1 mg/kg | 
10 | CCOc1ccc(CNc2cc(C(O)CNC(C)(C)C)ccc2O)cc1.Cl (stereo not drawn) [3-(4-Ethoxybenzylamino)-4-hydroxy-α-(tert.butylaminomethyl)benzylalcohol hydrochloride] | 0.01 mg/kg | 20 mg/kg | 400 mg/kg | 5 mg/kg | 10 | 0.1 mg/kg | 
11 | CC(C)(C)NCC(O)c1ccc(O)c(NCc2ccc(O)cc2)c1.Cl (stereo not drawn) [3-(4-Hydroxybenzylamino)-4-hydroxy-α-(tert.butylaminomethyl)benzylalcohol hydrochloride] | 0.01 mg/kg | 20 mg/kg | > 2000 mg/kg | 10 mg/kg | 7 | 0.07 mg/kg | 
12 | CC(C)Oc1ccc(CNc2cc(C(O)CNC(C)(C)C)ccc2O)cc1.Cl (stereo not drawn) [3-(4-Isopropoxybenzylamino)-4-hydroxy-α-(tert.butylaminomethyl)-benzylalcohol hydrochloride] | 0.03 mg/kg | 20 mg/kg | 400 mg/kg |  | 3.3 | 0.1 mg/kg | 
13 | Cc1ccc(CNc2cc(C(O)CNC(C)(C)C)ccc2O)cc1.Cl (stereo not drawn) [3-(4-Methylbenzylamino)-4-hydroxy-α-(tert.butylaminomethyl)benzylalcohol hydrochloride] | 0.07 mg/kg | 20 mg/kg | 700 mg/kg |  |  |  | 
14 | CC(C)(C)NCC(O)c1ccc(O)c(NCc2ccc([N+](=O)[O-])cc2)c1.Cl (stereo not drawn) [3-(4-Nitrobenzylamino)-4-hydroxy-α-(tert.butylaminomethyl)-benzylalcohol hydrochloride] | 0.01 mg/kg | 60 mg/kg | 400 mg/kg | 0.5 mg/kg | 10 | 0.1 mg/kg | 
15 | COc1ccc(C(=O)Nc2cc(C(O)CNC(C)(C)C)ccc2O)cc1.Cl (stereo not drawn) [3-(4-methoxybenzamido)-4-hydroxy-α-(tert.butylaminomethyl)benzylalcohol hydrochloride] | 0.1 mg/kg | 80 mg/kg | > 2000 mg/kg | 10 mg/kg | > 10 | > 1 mg/kg | the same ratio between bronchospasmolytic dose and tremor-inducing dose as salbutamol
16 | CC(C)(C)NCC(O)c1ccc(O)c(NC(=O)c2ccc([N+](=O)[O-])cc2)c1.Cl (stereo not drawn) [3-(4-nitrobenzamido)-4-hydroxy-α-(tert.butylaminomethyl)benzylalcohol hydrochloride] | 0.1 mg/kg | 40 mg/kg | > 2000 mg/kg | 10 mg/kg | > 10 | > 1 mg/kg | 
17 | COCCOc1ccc(CNc2cc(C(O)CNC(C)(C)C)ccc2O)cc1.Cl (stereo not drawn) [3-[4-(2-Methoxyethoxy)benzylamino]-4-hydroxy-α-(tert.butylaminomethyl)-benzylalcohol hydrochloride] | 0.01 mg/kg | 20 mg/kg | > 1000 mg/kg | 1 mg/kg | 10 | 0.1 mg/kg | 
18 | CC(C)(C)NCC(O)c1ccc(O)c(NCc2ccc(OCC(N)=O)cc2)c1 (stereo not drawn) [3-[4-(carbamoylmethoxy)benzylamino]-4-hydroxy-α-(tert.butylaminomethyl)benzylalcohol] | 0.01 mg/kg | 20 mg/kg | > 1000 mg/kg | 10 mg/kg | 10 | 0.1 mg/kg | 
19 | CC(C)NCC(O)c1ccc(O)c(O)c1 (centres unmarked) [Isoprenaline, reference compound] | 0.005 mg/kg |  |  |  |  | 0.0003 mg/kg | 
20 | CC(C)NCC(O)c1cc(O)cc(O)c1 (centres unmarked) [Orciprenaline, reference compound] | 0.1 mg/kg |  |  |  |  | 0.01 mg/kg | 
21 | CC(C)(C)NCC(O)c1ccc(O)c(CO)c1 (centres unmarked) [Saloutamol, salbutamol, reference compound] | 0.01 mg/kg |  |  | 5 mg/kg |  | 0.1 mg/kg | 
22 | CC(C)NCC(O)c1ccc(O)c(NS(C)(=O)=O)c1 (centres unmarked) [Soterenol, reference compound] | 0.02 mg/kg | 60 mg/kg | 750 mg/kg |  | 2 | 0.04 mg/kg | 
23 | CC(C)(C)NCC(O)c1cc(O)cc(O)c1 (centres unmarked) [Terbutaline, reference compound] | 0.03 mg/kg | 40 mg/kg | > 2000 mg/kg | 10 mg/kg | 10 | 0.3 mg/kg | 
